Where “and” joins values, the source holds several entries; their conditions need not be identical. Equal entries are not always repeated. Where two headings read alike, the source gives them in different places.
Key:
[1] = test system: PC-3 (prostate carcinoma) cells; test: cells; type: cell-based, human
Protocol: (§1) Adherent cells, LNCaP (prostate carcinoma), HT-29 (colon carcinoma) and PC-3 (prostate carcinoma), were cultured in DMEM media containing 10% heat inactivated fetal calf serum (FCS). On the day of the study the cells were detached from the plate with a trypsin solution. The collected cells were washed and resuspended at a concentration of 0.25×10^6 cells/ml in DMEM containing 10% FCS. 100 μl of cell suspension were added to 96 well plates and the plates were incubated for 3 hours to allow the cells to adhere. […] The plates were then incubated for 24 hours, pulsed with 10 μl of a 100 μCi/ml ^3H-thymidine and incubated for an additional 24 hours (total incubation time 48 hours). The plates were harvested using a 96 well Harvester (Packard Instruments) and counted on a Packard Top Count Counter. Four parameter logistic curves were fitted to the ^3H-thymidine incorporation as a function of drug molarity using Prism software to determine IC50 values.
as §1, with “carcinoma), PC-3 (prostate” for “carcinoma), HT-29 (colon”, “and 22 RV1” for “and PC-3”, “with 1:0” for “with 10”

[2] = test system: prostate carcinoma LNCaP tumors; conditions: for mean tumor weight of all mice when terminated: calculated, not shown; for Cancer Endpt.: tumor 1.5 g
Protocol: The mice were weighed and tumors were measured (by caliper) at least once a week prior to start of dosing (Day 0), then twice a week during the study. Immediately before the start of dosing (Study Day −2 to Day 0), mice were randomized to various groups based on the weight of the tumors. […] Mice were euthanized after the tumors reached a cutoff weight of 1.5 g (cancer endpoint), or when mice suffered over 25% weight loss (toxic endpoint). Studies were terminated at Day 60.

[3] = test system: LNCaP tumors; test: LNCaP xenograft in SCID mice, Q6DX2 (Example 24); type: in vivo, CB17.SCID mice; design: key to Tumor Weight: tumor weight in mg
Protocol: The mean tumor weight was approximately 200 mg at Day 0. […] Studies were terminated at Day 60.

[4] = test system: Parental CHO cells; test: 3H thymidine proliferation assay, parental CHO; type: cell-based, Chinese Hamster; conditions: for IC50: Cricetulus griseus; for Ratio Suc-β-Ala-Ile-Ala-Leu/Dox: Parental CHO, ratio of IC50
[5] = test system: HL60 cells (CD10 negative); test: Proliferation of HL60 cells with supernatant from compound-treated CHO cells; type: cell-based; conditions: Homo sapiens
Source text: Confirmation of the data is shown when Suc-βAla-Leu-Ala-Leu-Dox was compared to Suc-Leu-Ala-Gly-Dox and the results are consistent with the fact that Suc-βAla-Leu-Ala-Leu is cleaved by CD10 transfected cells and not by the parental cell lines.

[6] = test system: CD10 transfected CHO cells, DB4; test: 3H thymidine proliferation assay, CD10 transfected CHO DB4
Protocol: (§5) The fully assembled coding region was sub-cloned into a mammalian expression vector, downstream of the hCMV-MIE promoter. DNA sequence analysis confirmed sequence identity with the coding sequence of human CD10 (Genbank accession number Y00811). The expression plasmid was linearized and stably transfected into CHO—S cells. CD10 expressing transfectant clones were selected under 500 ug/mL of hygromycin and screened by flow cytometry for cell-surface CD10 expression using a commercially available anti-CD10-FITC antibody.

[7] = test system: CD10 transfected CHO cells, Clone #8; test: 3H thymidine proliferation assay, CD10 transfected CHO Clone #8
Protocol: as §5

[8] = Second single dose Maximum Tolerated Dose (SD-MTD) study, 49 days; conditions: mouse, in vivo, iv
Protocol: In a second single dose Maximum Tolerated Dose (SD-MTD) study, groups of five normal ICR mice were administered intravenous bolus doses of Suc-βAla-Leu-Ala-Leu-Dox. The mice were observed daily for 49 days and body weights measured twice weekly.
In a second single dose Maximum Tolerated Dose (SD-MTD) study, groups of five normal ICR mice were administered intravenous bolus doses of Suc-Leu-Ala-Leu-Dox. The mice were observed daily for 49 days and body weights measured twice weekly.
In a second single dose Maximum Tolerated Dose (SD-MTD) study, groups of five normal ICR mice were administered intravenously bolus doses of Suc-Ile-Ala-Leu-Dox. The mice were observed daily for 49 days and body weights measured twice weekly.
In a second single dose Maximum Tolerated Dose (SD-MTD) study, groups of five normal ICR mice were administered intravenous bolus doses of Suc-βAla-Ile-Ala-Leu-Dox. The mice were observed daily for 49 days and body weights measured twice weekly.

[9] = Single dose Maximum Tolerated Dose (MTD) study, 28 days; type: in vivo, mice; conditions: mouse, in vivo; intravenous bolus, normal mice, 28 days
Protocol: (§2) The mice were observed daily for 28 days and body weights measured twice weekly.
as §2
(§3) In the single dose Maximum Tolerated Dose (MTD) studies, groups of normal mice were administered intravenous bolus doses of the prodrug. The mice were observed daily for 28 days and body weights measured twice weekly. The MTD was estimated to be equal to the highest dose that produced no death in mice after 28 days.

[10] = test system: normal mice; test: as above; type: in vivo; conditions: for single-dose MTD, fold higher than doxorubicin alone: 28 days
Protocol: as §2, §2, §3

[11] = test system: HL-60 xenograft homogenate; test: Hydrolysis by mouse tumor xenograft homogenates; type: biochemical; conditions: 12.5 μg/mL, up to 1 hr, 37° C.
Protocol: (§4) Soluble protein was measured and results are reported as protein specific activity. The results, illustrated in FIG. 13, indicate the LNCaP cells contain the highest Suc-Ile-Ala-Leu-Dox hydrolyzing activity while HL-60 cells show no Suc-Ile-Ala-Leu-Dox hydrolyzing activity.

[12] = test system: LNCaP xenograft homogenate; test: Hydrolysis by mouse tumor xenograft homogenates; type: biochemical; conditions: 12.5 μg/mL, up to 1 hr, 37° C.
Protocol: as §4

Compound: COc1cccc2c1C(=O)c1c(O)c3c(c(O)c1C2=O)C[C@@](O)(C(=O)CO)C[C@@H]3O[C@H]1C[C@H](N)[C@H](O)[C@H](C)O1 [Doxorubicin, reference compound]
- IC50 ([1]; Homo sapiens, PC-3, 48 hours total incubation, read-out: IC50 PC-3): 75 nM
- IC50 ([1]; Homo sapiens, PC-3, Table 6, 48 hours, read-out: IC50 PC-3 CD10−PSA−): 40 nM
- mean tumor weight of all mice when terminated ([2]; 5 mg/kg Q7DX5): 967 mg
- Cancer Endpt. ([2]; 5 mg/kg Q7DX5): 0
- % Tumor Growth Inhibition D14 ([2]; 5 mg/kg i.v. Q7DX5): D14: 32 ± 16%
- Survivor (day 60) ([2]; 5 mg/kg i.v. Q7DX5): 1
- Tumor Weight D14 ([2]; 5 mg/kg i.v. Q7DX5): D14: 567 ± 77
- Toxic Endpt. ([3]; 3 mg/kg Q6DX2): 1
- % Tumor Growth Inhibition ([3]; 3 mg/kg Q6DX2, Day 12): 21 ± 8%
- Tumor Weight ([3]; 3 mg/kg Q6DX2, Day 12): 328 ± 35
- Survivor (day 22) ([3]; 3 mg/kg Q6DX2, groups of ten): 9
- Toxic Endpt. ([3]; 4 mg/kg Q6DX2): 2
- % Tumor Growth Inhibition ([3]; 4 mg/kg Q6DX2, Day 12): 26 ± 6%
- Tumor Weight ([3]; 4 mg/kg Q6DX2, Day 12): 310 ± 25
- Survivor (day 22) ([3]; 4 mg/kg Q6DX2, groups of ten): 8
- IC50 ([4]; CHO, Tables 25, 26, read-out: IC50 Parental CHO): 510 nM
- IC50 ([4]; CHO cells, average, read-out: average IC50 in CHO cells): 570 nM
- IC50 ([5]; HL-60, 24 h, HL60 fresh compound, 24 hours): 164 nM
- IC50 ([5]; HL-60, 24 h, supernatant of Parental CHO, collected 24 hours after exposure): 279 nM
- IC50 ([5]; HL-60, supernatant of Clone 8 (CD10 Pos.)): 488 nM
- IC50 ([5]; HL-60, supernatant of Clone 10 (CD10 Neg.)): 417 nM
- IC50 ([5]; HL-60, supernatant of Clone DB4 (CD10 Pos.)): 491 nM
- IC50 ([6]; Cricetulus griseus, CHO, read-out: IC50 DB4): 310 nM
- IC50 ([7]; Cricetulus griseus, CHO, read-out: IC50 Clone #8): 570 nM

Compound: COc1cccc2c1C(=O)c1c(O)c3c(c(O)c1C2=O)C[C@@](O)(C(=O)CO)C[C@@H]3O[C@H]1C[C@H](NC(=O)[C@H](CC(C)C)NC(=O)[C@H](C)NC(=O)[C@H](CC(C)C)NC(=O)CCNC(=O)CCC(=O)O)[C@H](O)[C@H](C)O1 [Suc-βAla-Leu-Ala-Leu-Dox]
- MTD [8]: 50 mg/kg
- mean tumor weight of all mice when terminated ([2]; 59 mg/kg Q7DX5): 232 mg
- Toxic Endpt. ([2]; 59 mg/kg Q7DX5, over 25% weight loss): 7 of 7 and 7
- Cancer Endpt. ([2]; 59 mg/kg Q7DX5): 0
- % Tumor Growth Inhibition D14 ([2]; 59 mg/kg i.v. Q7DX5): D14: 53 ± 15 %
- % Tumor Growth Inhibition D21 ([2]; 59 mg/kg i.v. Q7DX5): D21: 66 ± 15 %
- Survivor (day 60) ([2]; 59 mg/kg i.v. Q7DX5): 0
- Tumor Weight D14 ([2]; 59 mg/kg i.v. Q7DX5): D14: 391 ± 70
- Tumor Weight D21 ([2]; 59 mg/kg i.v. Q7DX5): D21: 318 ± 67
- Toxic Endpt. ([3]; 40 mg/kg Q6DX2): 0
- Tumor Weight ([3]; 40 mg/kg Q6DX2, Day 12): 244 ± 25
- Survivor (day 22) ([3]; 40 mg/kg Q6DX2, groups of ten): 10
- Toxic Endpt. ([3]; 50 mg/kg Q6DX2): 5
- Tumor Weight ([3]; 50 mg/kg Q6DX2, Day 12): 168 ± 29
- Survivor (day 22) ([3]; 50 mg/kg Q6DX2, groups of ten): 5
- Toxic Endpt. ([3]; 62 mg/kg Q6DX2): 6
- Tumor Weight ([3]; 62 mg/kg Q6DX2, Day 12): 196 ± 22
- Survivor (day 22) ([3]; 62 mg/kg Q6DX2, groups of ten): 4

Compound: CC[C@H](C)[C@H](NC(=O)CCNC(=O)CCC(=O)O)C(=O)N[C@@H](C)C(=O)N[C@@H](CC(C)C)C(=O)N[C@H]1C[C@H](O[C@H]2C[C@](O)(C(=O)CO)Cc3c(O)c4c(c(O)c32)C(=O)c2c(OC)cccc2C4=O)O[C@@H](C)[C@H]1O [Suc-βAla-Ile-Ala-Leu-Dox]
- MTD [9]: 40 mg/kg
- animals euthanized due to treatment-related toxicity ([10]; 100 mg/kg, Day 21, groups of five): two
- animals euthanized due to treatment-related toxicity ([10]; 125 mg/kg, Day 14, groups of five): four
- single-dose MTD, fold higher than doxorubicin alone [10]: approximately 10 fold
- Ratio Suc-β-Ala-Ile-Ala-Leu/Dox [4]: 49
- Ratio Suc-β-Ala-Ile-Ala-Leu/Dox ([4]; listed as Suc-β-Ala-Ile-Ala-Leu): 96
- Ratio Suc-β-Ala-Ile-Ala-Leu/Dox ([6]; DB4, ratio of IC50): 14
- IC50 difference to Dox ([7]; CD10 transfected CHO cells): ~16 fold
- Ratio Suc-β-Ala-Ile-Ala-Leu/Dox ([7]; Clone #8, ratio of IC50): 15

Compound: CC[C@H](C)[C@H](NC(=O)CCC(=O)O)C(=O)N[C@@H](C)C(=O)N[C@@H](CC(C)C)C(=O)N[C@H]1C[C@H](O[C@H]2C[C@](O)(C(=O)CO)Cc3c(O)c4c(c(O)c32)C(=O)c2c(OC)cccc2C4=O)O[C@@H](C)[C@H]1O [Suc-Ile-Ala-Leu-Dox]
- hydrolyzing activity (protein specific activity) [11]: no
- hydrolyzing activity (protein specific activity) [12]: highest
- IC50 ([1]; 48 hours total incubation, read-out: IC50 PC-3): 88000 nM
- MTD [9]: ≥ 66 mg/kg
- single-dose MTD, fold higher than doxorubicin alone [10]: at least 16 fold
- 28-day single-dose Maximum Tolerated Dose (MTD) ([10]; intravenous bolus, normal mice): > 117 mg/kg

Reference: patent US20050267016A1, “CD-10 activated prodrug compounds” (priority 2001, published 2005)
